Measurements reported in patent publication US20230286973A1, “PROTEIN SECRETION INHIBITORS” (KEZAR LIFE SCIENCES, priority 2020, published 2023).

Legend:
[1] = Liver Microsome Stability Assay (human); conditions: human liver microsomes, with NADPH, 1.0 uM compound
Description: (§1) Stability of a compound was assessed in the presence of liver microsomes from various sources—mouse, rat, monkey and human liver microsomes. 1.0 uM compound, 0.4% DMSO in 0.1 M Potassium Phosphate with 1.0 mg/mL liver microsomes, were incubated at 37° C. with or without 1 mM NADPH. The samples were quenched at 0, and 30 minutes.

[2] = Liver Microsome Stability Assay (mouse); conditions: mouse liver microsomes, with NADPH, 1.0 uM compound
Description: as §1

[3] = tested on: HER3-ss+4aa/Gaussia Luciferase; test: Dox-Induced Her3-ss-Gluc Assay; assay type: cell-based; conditions: 24 hr Dox induction; 293FRT/TO cells; read-out: 24 hr Dox Inducible Her3(ss + 4)Gluc 293FRT/TO: Mean IC50
How it was run: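 Cells were seeded a day ahead, then given compound diluted in DMSO/media with doxycycline to induce expression of the HER3 signal sequence (+4 aa)–Gaussia luciferase fusion. Incubation was at 37° C., 5% CO2, in a stable Flp-In 293 T-REx line.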

[4] = Liver Microsome Stability Assay (rat); conditions: rat liver microsomes, with NADPH, 1.0 uM compound
Description: as §1

[5] = tested on: multiple myeloma cell line NCI-H929; test: H929 Cell Viability Assay; assay type: cell-based, human; conditions: Homo sapiens, NCI-H929, 48 h, NCI-H929 cells, Celltiter-Glo
How it was run: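 Luminescent ATP detection (CellTiter-Glo) after 48 hours of compound exposure measures viability. Cells were plated in RPMI 1640 containing 10% fetal bovine serum and kept at 37° C under 5% CO2.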

[6] = tested on: PD1-ss+10aa/Gaussia Luciferase; test: Dox-Induced PD1-ss-Gluc Assay; assay type: cell-based; conditions: 24 hr Dox induction; 293FRT/TO cells; read-out: 24 hr Dox Inducible PD1ssGluc 293FRT/TO: Mean IC50
How it was run: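 Flp-In 293 T-REx, stable line; Tet-regulated PD1-ss+10aa fused to Gaussia luciferase; plated day prior; cpd + doxycycline in DMSO/media; 37 °C, 5% CO2.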

[7] = tested on: multiple myeloma cell line U266B1; test: U266 Cell Viability Assay; assay type: cell-based, human; conditions: Homo sapiens, U-266, 48 h, U266B1 cells, Celltiter-Glo
How it was run: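 Steps: culture in RPMI 1640 plus 10% FBS and 2 mM glutamine; plate and add compound dilutions; incubate 48 hours at 37° C., 5% CO2; add CellTiter-Glo and quantify luciferase signal.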

[8] = tested on: TNFα-FL/Gaussia Luciferase; test: Dox Induced TNFα-FL-Gluc Assay; assay type: cell-based; conditions: for IC50: 24 hr Dox induction, 293FRT/TO cells, read-out: 24 hr Dox Inducible TNFaFLGluc 293FRT/TO: Mean IC50; for 24 hr Dox Inducible TNFaFLGluc 293FRT/TO: TNF/PD1: ratio of TNFaFLGluc IC50 to PD1ssGluc IC50
How it was run: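 Stereoisomer mixtures were tested where stereochemistry is not drawn. Induction used doxycycline added together with compound dilutions in DMSO/media to Flp-In 293 T-REx cells carrying a T-REx-regulated TNFα (aa 1-233)-Gaussia luciferase construct, then incubated at 37 °C, 5% CO2.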

[9] = tested on: IL-2-FL/Gaussia Luciferase; test: Dox Induced IL2-FL-Gluc Assay; assay type: cell-based; conditions: for IC50: 24 hr Dox induction, 293FRT/TO cells, read-out: 24 hr Dox Inducible IL2FLGluc 293FRT/TO: Mean IC50; for 24 hr Dox Inducible IL2FLGluc 293FRT/TO: IL2/PD1: ratio of IL2FLGluc IC50 to PD1ssGluc IC50
How it was run: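 Cells are plated one day ahead, then receive compound dilutions in DMSO/media with doxycycline and incubate at 37° C, 5% CO2. They are Flp-In 293 T-REx cells expressing a full-length IL-2 (amino acids 1-153)–Gaussia luciferase fusion under T-REx control.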

[10] = Liver Microsome Stability Assay (monkey); conditions: monkey liver microsomes, with NADPH, 1.0 uM compound
Description: as §1

Row | SMILES | Liver Microsome Stability (Multiple Species): Human - % Remaining after 30 min w/NADPH [1] | Liver Microsome Stability (Multiple Species): Mouse - % Remaining after 30 min w/NADPH [2] | IC50 [3] | Liver Microsome Stability (Multiple Species): Rat - % Remaining after 30 min w/NADPH [4] | EC50 [5] | IC50 [6] | EC50 [7] | IC50 [8] | IC50 [9] | Liver Microsome Stability (Multiple Species): Monkey - % Remaining after 30 min w/NADPH [10] | 24 hr Dox Inducible TNFaFLGluc 293FRT/TO: TNF/PD1 [8] | 24 hr Dox Inducible IL2FLGluc 293FRT/TO: IL2/PD1 [9]
1 | O=C(Nc1nc([C@H]2CCCN2c2ccc(CO)cc2)cs1)c1cccn1Cc1ccncc1 [Compound A57, (R)-N-(4-(1-(4-(hydroxymethyl)phenyl)pyrrolidin-2-yl)thiazol-2-yl)-1-(pyridin-4-ylmethyl)-1H-pyrrole-2-carboxamide] | 26.6% | 6.1% | 38.3 nM | 6.28% | 500 nM | 17.7 nM | > 25000 nM | 287 nM | 45.1 nM | 49.5% | 16.2 | 2.5
2 | CC(=O)N1CCCCC1c1ccc(N2CCC[C@@H]2c2csc(NC(=O)c3cccn3Cc3ccncc3)n2)cc1 (stereo partly drawn) [Compound A58, N-(4-((2R)-1-(4-(1-acetylpiperidin-2-yl)phenyl)pyrrolidin-2-yl)thiazol-2-yl)-1-(pyridin-4-ylmethyl)-1H-pyrrole-2-carboxamide] | 0.4% | 0.24% | 249 nM | 4.13% | 3340 nM | 108 nM | 9990 nM | 1880 nM | 296 nM | 0.29% | 17.4 | 2.7
3 | O=C(Nc1nc([C@H]2CCCN2c2ccc(C3CCCCN3)cc2)cs1)c1cccn1Cc1ccncc1 (stereo partly drawn) [Compound A59, N-(4-((2R)-1-(4-(piperidin-2-yl)phenyl)pyrrolidin-2-yl)thiazol-2-yl)-1-(pyridin-4-ylmethyl)-1H-pyrrole-2-carboxamide] | 0.62% | 49.8% | 5060 nM | 21.3% | 16000 nM | 2180 nM | 6490 nM | 22500 nM | 6960 nM | 2.29% | 10.3 | 3.2
4 | O=C(Nc1nc([C@H]2CCCN2c2ccccc2)cs1)c1cccn1Cc1cc(F)nc(F)c1 [Compound A60, (R)-1-((2,6-difluoropyridin-4-yl)methyl)-N-(4-(1-phenylpyrrolidin-2-yl)thiazol-2-yl)-1H-pyrrole-2-carboxamide] | 13.7% | 48.3% | 131 nM | 19.7% | 4720 nM | 63.8 nM | > 25000 nM | 861 nM | 186 nM | 23.8% | 13.5 | 2.9
5 | O=C(Nc1nc([C@H]2CCCN2c2ccc(C3CCCNC3)cc2)cs1)c1cccn1Cc1ccncc1 (stereo partly drawn) [Compound A61, N-(4-((2R)-1-(4-(piperidin-3-yl)phenyl)pyrrolidin-2-yl)thiazol-2-yl)-1-(pyridin-4-ylmethyl)-1H-pyrrole-2-carboxamide] | 2.45% | 54.5% | 1570 nM | 22.8% | 6290 nM | 917 nM | 5520 nM | 11600 nM | 3220 nM | 5.11% | 12.7 | 3.5

Now from value to molecule, other results behind:

Row | Liver Microsome Stability (Multiple Species): Human - % Remaining after 30 min w/NADPH [1] | Liver Microsome Stability (Multiple Species): Mouse - % Remaining after 30 min w/NADPH [2] | IC50 [3] | Liver Microsome Stability (Multiple Species): Rat - % Remaining after 30 min w/NADPH [4] | EC50 [5] | IC50 [6] | EC50 [7] | IC50 [8] | IC50 [9] | Liver Microsome Stability (Multiple Species): Monkey - % Remaining after 30 min w/NADPH [10] | SMILES | 24 hr Dox Inducible TNFaFLGluc 293FRT/TO: TNF/PD1 [8] | 24 hr Dox Inducible IL2FLGluc 293FRT/TO: IL2/PD1 [9]
6 | 34.3% | 52.7% | 35.7 nM | 45.1% | 373 nM | 15 nM | > 25000 nM | 251 nM | 29.8 nM | 21.4% | CC(=O)N1CCC(Oc2ccc(N3CCC[C@@H]3c3csc(NC(=O)c4cccn4Cc4ccnc(F)c4)n3)cc2)CC1 [Compound A62, (R)-N-(4-(1-(4-((1-acetylpiperidin-4-yl)oxy)phenyl)pyrrolidin-2-yl)thiazol-2-yl)-1-((2-fluoropyridin-4-yl)methyl)-1H-pyrrole-2-carboxamide] | 16.7 | 2
7 | 2.22% | 3.64% | 130 nM | 6.07% | 1780 nM | 80 nM | > 25000 nM | 1060 nM | 149 nM | 1.18% | CC(=O)N1CCCC(c2ccc(N3CCC[C@@H]3c3csc(NC(=O)c4cccn4Cc4ccncc4)n3)cc2)C1 (stereo partly drawn) [Compound A63, N-(4-((2R)-1-(4-(1-acetylpiperidin-3-yl)phenyl)pyrrolidin-2-yl)thiazol-2-yl)-1-(pyridin-4-ylmethyl)-1H-pyrrole-2-carboxamide] | 13.2 | 1.9
8 | 1.39% | 13.7% | 19.4 nM | 6.39% | 203 nM | 10.6 nM | > 25000 nM | 164 nM | 27 nM | 0.78% | CC(=O)NCc1ccc(N2CCC[C@@H]2c2csc(NC(=O)c3cccn3Cc3ccnc(F)c3)n2)cc1 [Compound A64, (R)-N-(4-(1-(4-(acetamidomethyl)phenyl)pyrrolidin-2-yl)thiazol-2-yl)-1-((2-fluoropyridin-4-yl)methyl)-1H-pyrrole-2-carboxamide] | 15.4 | 2.5
9 | 22.1% | 7.68% | 6.49 nM | 1.1% | 81.2 nM | 2.11 nM | > 25000 nM | 65.5 nM | 7.99 nM | 0.35% | NC(=O)c1ccc(N2CCC[C@@H]2c2csc(NC(=O)c3cccn3Cc3ccnc(F)c3)n2)cc1 [Compound A65, (R)-N-(4-(1-(4-carbamoylphenyl)pyrrolidin-2-yl)thiazol-2-yl)-1-((2-fluoropyridin-4-yl)methyl)-1H-pyrrole-2-carboxamide] | 31 | 3.8
